Laboratory results from patent publication US20020002202A1, “Use of fumarate salt of L-carnitine or its alkanoyl derivatives in ischaemia” (priority 1998, published 2002).
“Also recorded” adds a separate entry of the source.

Key:
[1] = amount equivalent to the exogenous L-carnitine required; cited from earlier work
Perfused Heart = test: low-pressure or low-flow ischemia model, perfused heart (Langendorff)
Description: In this example, the low-pressure or low-flow ischemia model was used, which is a model recognised as valid for cardiac ischemia (Bolukoglu, H. et al. Am. J. Physiol. 1996: 270; H817-26).
The treatment schedule is illustrated in FIG. 1, in which the letters A-F denote the heart effluent sampling times for the measurement of metabolites. The hearts are removed from the animals and mounted on a Langerdorff appliance. The perfusion medium replacing the blood was a Krebs-Heinsleit standard bicarbonate buffer containing glucose 12 mM as energy source for cardiac metabolism.
After 30 minute perfusion at a pressure of 100 cm of water, ischemia was induced by reducing the perfusion pressure of the heart to 25 cm of water, thus reducing coronary flow from approximately 2 ml/min to approximately 0.3 ml/min. Reduction of the perfusion pressure gives rise to ischemia, since the heart will pump the fluid in the low-perfusion area rather than via the coronary bloodstream, supplying the flow to the heart.
This control model was compared with hearts perfused with L-carnitine 10 mM or L-carnitine fumarate 10 mM.
Cardiac function was tested in three different ways.
In the first, the NRM ^31P signal was monitored in real time.
This signal provides the best indication of the energy status of the heart.
In the second, the haemodynamics of the heart was measured by means of a pressure transducer mounted to measure the perfusion pressure. The haemodynamic measurements include heart rate, relative dP/dt (measurement of the contraction force of the heart) and the cardiac contraction amplitude. Coronary flow was also measured as an indicator of the heart's ability to provide oxygen and energy for its own metabolism.
In the third type of test, the metabolites and the enzyme LDH released by the heart were analysed in the effluent. The release of LDH indicates damage to cardiac tissue. The release of metabolites by the heart was tested by means of mass spectrometry coupled with gas chromatography.
The procedures of example 1 were substantially repeated, with the addition of a treatment with carnitine alone as a further control.

[2] = heart effluent, GC-MS, low-flow ischemia, 10 mM, vs control hearts

Compound	gastrointestinal disorders (increased volume and fluidity of faeces and frequency of bowel movements) [1]	ATP phosphate peaks (alpha, beta, gamma) (Perfused Heart; 31P NMR, FIG. 2, after 40 minutes of ischemia, Example 2)	reserves of high-energy phosphate (creatine phosphate observed at NMR) (Perfused Heart; 31P NMR, after 45 minutes of ischemia, 10 mM, vs control hearts)	succinate released by the heart (Perfused Heart; heart effluent, FIG. 3, as compared to lactate, Example 2)	lactate released by the heart (Perfused Heart; [2])	release of malate (Perfused Heart; [2])	release of LDH (Perfused Heart; heart effluent, low-flow ischemia, 10 mM in perfusion medium, vs control hearts)	coronary flow (Perfused Heart; postischemic, 10 mM, vs control hearts)	postischemic cardiac contraction amplitude (Perfused Heart; pressure transducer, 10 mM, vs control hearts)
C[N+](C)(C)C[C@H](O)CC(=O)[O-].O=C(O)C(O)C(O)C(=O)O [L-carnitine L-tartrate]	caused	–	–	–	–	–	–	–	–
C[N+](C)(C)C[C@H](O)CC(=O)[O-] [L-carnitine]	caused	lacking	–	–	–	–	–	–	–
L-carnitine acid fumarate [L-carnitine fumarate]	eliminated	–	greater	low amount	less and reduction	more	reduced; also recorded: affords protection against ischemic damage	greater	greater
